From ChEMBL document CHEMBL5727613, “Benzimidazolone and benzothiazolone compounds and their use as AMPA receptor modulators” (2020)

Experiment: Calcium Flux Assay: This assay was used to test compounds for their ability to inhibit TARP γ8 dependent AMPA receptor activity. The AMPA receptor is a non-selective cation channel activated by glutamate. lonotropic glutamate receptors normally desensitize too rapidly to allow detectable calcium influx in a FLIPR assay (Strange et al. (2006). “Functional characterisation of homomeric ionotropic glutamate receptors GluR1-GluR6 in a fluorescence-based high throughput screening assay.” Comb Chem High Throughput Screen 9(2): 147-158). But, this desensitization is incomplete, and a substantial steady-state current remains in the sustained presence of glutamate (Cho et al. (2007). “Two families of TARP isoforms that have distinct effects on the kinetic properties of AMPA receptors and synaptic currents.” Neuron 55(6): 890-904).An in vitro assay was used to determine the potency of test compounds as inhibitors of the glutamate response of the channel formed by GluA1o-g8. To ensure a 1:1 stoichiometry of GluA1o and g8 subunits in the expressed channel, a fusion of the cDNAs for GRIA1o and CACNG8 was used. Channels expressed with this construct appear to have similar properties to channels formed by co-expression of GRIA1o with an excess of CACNG8 (Shi et al. 2009). A clonal cell line in HEK293 cells stably expressing this construct, with a geneticin selection marker, was generated for use in this assay. Cell expressing the GRIAlo-CACNG8 fusion construct were grown in a monolayer in 96- or 384-well microtiter plates. They were washed with assay buffer (135 mM NaCl, 4 mM KCl, 3 mM CaCl2), 1 mM MgCl2, 5 mM glucose, 10 mM HEPES, pH 7.4, 300 mOs) using a Biotek EL405 plate washer. The cells were then loaded with a calcium-sensitive dye (Calcium-5 or Calcium-6, Molecular Devices) and the test compounds at a range of concentrations. Calcium flux following the addition of 15 μM glutamate was monitored using a Molecular Devices FLIPR Tetra.The fluorescence in each well was normalized to the fluorescence of negative and positive control wells. […]

Structure (SMILES) | IC50 [nM]
Cc1cccc(C)c1-c1ccc2[nH]c(=O)[nH]c2c1 | 158
O=c1[nH]c2ccc(-c3c(Cl)cccc3OC(F)(F)F)cc2s1 | 2.51
O=c1[nH]c2ccc(-c3c(Cl)cccc3C3CC3)cc2[nH]1 | 6.31
